Earlier results in patent US20100166671A1, “ORGANIC COMPOUNDS” (priority 2006, published 2010).

Conditions: single administration of a metered dose, aerosol formulation, treating asthma

C[N+]1(C)CCC(OC(=O)C(O)(c2ccccc2)C2CCCC2)C1.[Br-] (stereo not shown) [glycopyrrolate, 3-[(cyclopentyl-hydroxyphenylacetyl)oxy]-1,1-dimethylpyrrolidinium bromide]
duration of bronchodilation: up to 12 hours
